Test results: PubChem BioAssay AID1963447 (Molecular Pharmacology Branch, DTP, NCI, 2024)
pIC50: −log10 of the molar value.

Tested on: 885512-296-R-J2-PDC complex spheroid growth, % test/control
Test: Anticancer human tumor 885512-296-R-J2-PDC patient-derived breast carcinoma cell line growth inhibition [Asc]
Conditions: for pIC50: curve of first compound; for viability, T/C: stronger effect = lower value; active means viability on the fitted dose curve at most 10% of control; inactive means the rest
Procedure, shortened: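 Stromal components (HUVEC and hMSC) are co-assembled with the cancer cells into multicellular spheroids. Drugs are then added singly or paired, at concentrations falling by half-log increments from a clinically achievable maximum, capped at 10 microM without known Cmax.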

[1] = second compound 0.03 µM, first compound 0.00316 µM
[2] = second compound 0.03 µM, first compound 0.01 µM
[3] = second compound 0.03 µM, first compound 0.0316 µM
[4] = second compound 0.03 µM, first compound 0.1 µM
[5] = second compound 0.03 µM, first compound 0.316 µM
[6] = second compound 0.03 µM, first compound 1 µM
[7] = second compound 0.0949 µM, first compound 0.00316 µM
[8] = second compound 0.0949 µM, first compound 0.01 µM
[9] = second compound 0.0949 µM, first compound 0.0316 µM
[10] = second compound 0.0949 µM, first compound 0.1 µM
[11] = second compound 0.0949 µM, first compound 0.316 µM
[12] = second compound 0.0949 µM, first compound 1 µM
[13] = second compound 0.3 µM, first compound 0.00316 µM
[14] = second compound 0.3 µM, first compound 0.01 µM
[15] = second compound 0.3 µM, first compound 0.0316 µM
[16] = second compound 0.3 µM, first compound 0.1 µM
[17] = second compound 0.3 µM, first compound 0.316 µM
[18] = second compound 0.3 µM, first compound 1 µM
[19] = second compound 0.949 µM, first compound 0.00316 µM
[20] = second compound 0.949 µM, first compound 0.01 µM
[21] = second compound 0.949 µM, first compound 0.0316 µM
[22] = second compound 0.949 µM, first compound 0.1 µM
[23] = second compound 0.949 µM, first compound 0.316 µM
[24] = second compound 0.949 µM, first compound 1 µM
[25] = second compound 3 µM, first compound 0.00316 µM
[26] = second compound 3 µM, first compound 0.01 µM
[27] = second compound 3 µM, first compound 0.0316 µM
[28] = second compound 3 µM, first compound 0.1 µM
[29] = second compound 3 µM, first compound 0.316 µM
[30] = second compound 3 µM, first compound 1 µM
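Further: spheroids exposed to compounds for seven days.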
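Wherever viability, T/C is given: 100% = DMSO vehicle control wells.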

CNC(C)C(=O)NC1CN(S(=O)(=O)c2cccc(S(=O)(=O)N3CCC4CCC(C(=O)NC(c5ccccc5)c5ccccc5)N4C(=O)C(NC(=O)C(C)NC)C3)c2)CCC2CCC(C(=O)NC(c3ccccc3)c3ccccc3)N2C1=O (stereo not given) + CCN1C(C(=O)NC23CCC(C(=O)O)(CC2)CC3)C(c2cccc(Cl)c2F)C2(C(=O)Nc3cc(Cl)ccc32)C12CCCCC2
> 8.50: pIC50 (second compound 3 µM)
inactive: viability, T/C [1] 92.3% | viability, T/C [2] 90.4% | viability, T/C [3] 99.8% | viability, T/C [4] 94.2% | viability, T/C [5] 126% | viability, T/C [6] 109% | viability, T/C [7] 77.6% | viability, T/C [8] 110% | viability, T/C [9] 90.3% | viability, T/C [10] 112% | viability, T/C [11] 120% | viability, T/C [12] 115% | viability, T/C [13] 84.3% | viability, T/C [14] 88.7% | viability, T/C [15] 91.6% | viability, T/C [16] 93% | viability, T/C [17] 103% | viability, T/C [18] 112% | viability, T/C [19] 75.3% | viability, T/C [20] 72.8% | viability, T/C [21] 76.6% | viability, T/C [22] 87.6% | viability, T/C [23] 91.9% | viability, T/C [24] 86.6% | viability, T/C [25] 41.4% | viability, T/C [26] 37.4% | viability, T/C [27] 49% | viability, T/C [28] 59.5% | viability, T/C [29] 59% | viability, T/C [30] 62.6%
< 6.00: pIC50 (second compound 0.03 µM) | pIC50 (second compound 0.0949 µM) | pIC50 (second compound 0.3 µM) | pIC50 (second compound 0.949 µM)

O=C(c1ccc(F)c(F)c1Nc1ccc(I)cc1F)N1CC(O)([C@@H]2CCCCN2)C1 + CCN1C(C(=O)NC23CCC(C(=O)O)(CC2)CC3)C(c2cccc(Cl)c2F)C2(C(=O)Nc3cc(Cl)ccc32)C12CCCCC2
7.26: pIC50 (second compound 0.949 µM)
inactive: viability, T/C [1] 100% | viability, T/C [2] 74.2% | viability, T/C [3] 63.5% | viability, T/C [4] 62% | viability, T/C [5] 39.4% | viability, T/C [6] 18.7% | viability, T/C [7] 89.4% | viability, T/C [8] 89.3% | viability, T/C [9] 66.5% | viability, T/C [10] 57.1% | viability, T/C [11] 39.1% | viability, T/C [12] 17.5% | viability, T/C [13] 83.5% | viability, T/C [14] 80.6% | viability, T/C [15] 65.7% | viability, T/C [16] 55.2% | viability, T/C [17] 36.8% | viability, T/C [18] 18.1% | viability, T/C [19] 67.7% | viability, T/C [20] 53.4% | viability, T/C [21] 54% | viability, T/C [22] 48.8% | viability, T/C [23] 33.9% | viability, T/C [24] 17.5% | viability, T/C [25] 42.7% | viability, T/C [26] 35.9% | viability, T/C [27] 31.4% | viability, T/C [28] 35.4% | viability, T/C [29] 22.2% | viability, T/C [30] 14.7%
6.83: pIC50 (second compound 0.0949 µM)
6.90: pIC50 (second compound 0.03 µM)
6.88: pIC50 (second compound 0.3 µM)
> 8.50: pIC50 (second compound 3 µM)

O=C(c1ccc(F)c(F)c1Nc1ccc(I)cc1F)N1CC(O)([C@@H]2CCCCN2)C1 + Cc1c(S(C)(=O)=O)c(-c2cc(F)cc(N3CCN(c4ccc(NS(=O)(=O)c5ccc(NC(CCN6CCC(C(=O)OCCCP(=O)(O)O)CC6)CSc6ccccc6)c(S(=O)(=O)C(F)(F)F)c5)cc4)CC3)c2)c(-c2ccc(Cl)cc2)n1C(C)C
6.92: pIC50 (second compound 0.1 µM)
6.34: pIC50 (second compound 10 µM)
7.03: pIC50 (second compound 0.316 µM)
7.11: pIC50 (second compound 3.16 µM)
7.05: pIC50 (second compound 1 µM)
inactive: viability, T/C (second compound 0.1 µM, first compound 0.00316 µM) 77.6% | viability, T/C (second compound 0.1 µM, first compound 0.01 µM) 82.5% | viability, T/C (second compound 0.1 µM, first compound 0.0316 µM) 69.9% | viability, T/C (second compound 0.1 µM, first compound 0.1 µM) 50.8% | viability, T/C (second compound 0.1 µM, first compound 0.316 µM) 34% | viability, T/C (second compound 0.1 µM, first compound 1 µM) 13.1% | viability, T/C (second compound 0.316 µM, first compound 0.00316 µM) 94% | viability, T/C (second compound 0.316 µM, first compound 0.01 µM) 88.8% | viability, T/C (second compound 0.316 µM, first compound 0.0316 µM) 63.6% | viability, T/C (second compound 0.316 µM, first compound 0.1 µM) 51.9% | viability, T/C (second compound 0.316 µM, first compound 0.316 µM) 28.7% | viability, T/C (second compound 0.316 µM, first compound 1 µM) 13.7% | viability, T/C (second compound 1 µM, first compound 0.00316 µM) 86.9% | viability, T/C (second compound 1 µM, first compound 0.01 µM) 68.7% | viability, T/C (second compound 1 µM, first compound 0.0316 µM) 68.1% | viability, T/C (second compound 1 µM, first compound 0.1 µM) 48.4% | viability, T/C (second compound 1 µM, first compound 0.316 µM) 30.2% | viability, T/C (second compound 1 µM, first compound 1 µM) 12.2% | viability, T/C (second compound 3.16 µM, first compound 0.00316 µM) 102% | viability, T/C (second compound 3.16 µM, first compound 0.01 µM) 86.8% | viability, T/C (second compound 3.16 µM, first compound 0.0316 µM) 55.1% | viability, T/C (second compound 3.16 µM, first compound 0.1 µM) 51.5% | viability, T/C (second compound 3.16 µM, first compound 0.316 µM) 30.4% | viability, T/C (second compound 3.16 µM, first compound 1 µM) 11.2% | viability, T/C (second compound 10 µM, first compound 0.00316 µM) 111% | viability, T/C (second compound 10 µM, first compound 0.01 µM) 109% | viability, T/C (second compound 10 µM, first compound 0.0316 µM) 99.2% | viability, T/C (second compound 10 µM, first compound 0.1 µM) 96.1% | viability, T/C (second compound 10 µM, first compound 0.316 µM) 64.2% | viability, T/C (second compound 10 µM, first compound 1 µM) 16.4%
